Consider two molecules from US8138357B2, “Compounds and their salts specific to the PPAR receptors and the EGF receptors and their use in the medical field” (Giuliani International Limited, priority 2005, dated 2012).

In data set [1] the target is T1, PPARγ (Homo sapiens, UniProt P37231).
T1 construct: HT-29 STD cells were transiently transfected using the Effectene™ transfection reagent; endogenous in cells; host or cells: HT-29 STD (human colon carcinoma)
T1 sequence (P37231 1-505): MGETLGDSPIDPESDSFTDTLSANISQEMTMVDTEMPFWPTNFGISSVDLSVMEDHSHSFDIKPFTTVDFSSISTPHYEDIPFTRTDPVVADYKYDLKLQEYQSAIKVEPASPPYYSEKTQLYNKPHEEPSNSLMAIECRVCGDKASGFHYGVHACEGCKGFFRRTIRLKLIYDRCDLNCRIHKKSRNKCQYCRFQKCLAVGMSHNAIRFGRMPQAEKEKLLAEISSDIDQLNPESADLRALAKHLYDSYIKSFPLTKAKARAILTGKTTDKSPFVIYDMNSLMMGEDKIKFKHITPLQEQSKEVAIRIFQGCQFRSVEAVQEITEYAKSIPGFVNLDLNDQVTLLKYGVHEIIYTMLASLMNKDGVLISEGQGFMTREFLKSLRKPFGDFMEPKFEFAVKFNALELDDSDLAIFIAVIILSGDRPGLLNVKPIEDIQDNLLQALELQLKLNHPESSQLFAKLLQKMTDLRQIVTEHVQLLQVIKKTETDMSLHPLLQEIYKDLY
The data set can be described thus: PPARγ activation, PPRE (2XCYP) luciferase reporter in transfected HT-29 STD cells (Example 8). The format is cell-based. As to conditions: 30 mM, 24 hours, HT-29 STD transfected with 2XCYP. The method, then: HT-29 STD cells were transiently transfected using the Effectene™ transfection reagent (Qiagen™) according to instructions from the manufacturer. To test PPARγ activation, we performed transfection with 500 ng of a minimal promoter construct containing two copies of PPRE obtained from the cytochrome p450 4A (2XCYP) (1). The renilla luciferase plasmid ([…]) was also transfected as an internal control for monitoring transfection efficiency and for normalizing the firefly luciferase activity. Transfected cells were left for 48 hours incubation at 37° C. […] The pH of the drug solutions was adjusted to 7.4 with NaOH. Total cell extracts were prepared using the Passive Lysis Buffer (Promega™, Madison, Wis.). Luciferase activity was assayed in 20 μl of the extract using the Promega™ Dual Luciferase assay system according to the manufacturer's protocol. Transfections were assayed in triplicate in at least three separate experiments. The luciferase activity was expressed as fold of the activity obtained in cells treated with the different molecules divided by luciferase activity from non-stimulated cells.

Data set [2] has as its system PPARγ. The data set can be described thus: PPARγ protein expression by western blot in HT-29 cells. It counts as cell-based, human. As to conditions: 30 mM, 24 hours, HT-29, relative to β-actin. The method, then: The total proteins were obtained by cell homogenization in an extraction buffer consisting of PBS with 2% Triton™, Phenyl Methyl Sulphonyl Fluoride (PMSF) 100 mM and a classical protease inhibitor cocktail (2). The total proteins were then separated by polyacrylamide gel electrophoresis and electroblotted. Polyvinylidendifluoride (PVDF) membranes were incubated overnight with rabbit polyclonal primary antibody directed against PPARγ (dilution 1/500, TEBU, Le Perray en Yveline, France). β-actin was detected using a rabbit monoclonal primary antibody diluted at 1/10,000 (Sigma). Immunodetection with a secondary peroxidase-conjugated antibody (1/1000, Dako™, Trappes, France) and chemiluminescence was performed according to the manufacturer's protocol (ECL™, Amersham Pharmacia Biotech™, Orsay, France). Optical density values of PPARγ were given for each condition in proportion to the quantity of the internal control β-actin in the same sample (2).
(Immunoblotting shows a protein as a band on a membrane.)

Data set [3] relates to HT-29 STD cells. The data set can be described thus: Cell proliferation by nuclear Ki-67 immunostaining. The format is cell-based. The settings on record: Homo sapiens, 30 mM, 24 h, compared to untreated cells, read-out: inhibition of cell proliferation (Ki-67 staining). The procedure: After 24 h of culture, HT-29 STD cells were treated during 24 h with the new molecules 13, 14, 17, 26 and 31, at 30 mM. […] The pH of the drug solutions was adjusted to 7.4 with NaOH. Cells were fixed in PFA 4%, permeabilized in PBS containing 0.1% Triton X-100™ at 4° C. and then incubated with goat normal serum and blocking buffer (1% BSA in PBS) to minimize non-specific adsorption of the antibody. Cell proliferation was assessed by a nuclear Ki-67 staining using mouse monoclonal primary antibody directed against Ki-67 (dilution 1:50 overnight; ZYMED™ Clinisciences™, Montrouge, France). […] Nuclei were stained with Hoescht 33342 solution (0.125 mg/mL) (Sigma-Aldrich™) and visualized under a fluorescence microscope (Leica™, Bensheim, Germany). Negative controls consisted of staining with a non-specific mouse serum instead of the specific antibody. Counts of at least 500 cells/sample were systematically performed blindly in one experiment. The results were expressed as the mean±SEM of the number of stained cells.

Another data set deals with DLD-1 cells. As to the kind of experiment: Cell growth by colorimetric BrdU incorporation assay, DLD-1. It counts as cell-based. The settings on record: Homo sapiens, 48 hours; for inhibition at 500 µM: 0.5 mM; for inhibition at 1000 µM: 1 mM; for inhibition at 2500 µM: 2.5 mM; for inhibition at 5000 µM: 5 mM; for inhibition at 10000 µM: 10 mM. The method, then: (§1) HT-29 and DLD-1 cells were cultured in McCoy and RPMI1640 media respectively, supplemented with 10% fetal bovine serum (FBS), 1% penicillin/streptomycin (P/S) and 50 μg/ml gentamycin. HT-115 were cultured in DMEM medium supplemented with 15% FBS and 1% P/S. Cells were maintained in a humidified incubator at 37° C., in the presence of 5% CO2.
(§2) For cell growth assays, single-cell suspensions were plated at 2×10^3 cells/well (4×10^3 cells/well for HT115) in 96-well culture dishes in medium containing 0.5% FBS and allowed to adhere. The non-adherent cells were then removed, and fresh medium containing 0.5% FBS was added into each well. Cells were cultured in the presence or absence of the specified substances. Each substance was dissolved as a 25 mM stock solution in culture medium containing 0.5% FBS, and the pH of each stock solution was adjusted to 7.4, if necessary, with NaOH. Substances were used at a final concentration ranging from 0.5 to 10 mM. Cell proliferation was determined by measuring the incorporation of 5-bromo-2′-deoxyuridine (BrdU) into DNA using a commercially available cell proliferation kit (Roche Diagnostics™, Monza, Italy). BrdU was added to the cell cultures during the last 6 hours of incubation, and the level of BrdU-positive cells was assessed after 48 h culture by enzyme-linked immunosorbent assay (ELISA).
(§3) Optical density (OD) was determined at 450 nm using an ELISA reader. Experiments were performed in triplicate and the results are reported as the mean±standard deviation (SD).
A general note: Dividing cells build labelled thymidine or BrdU into new DNA.

The next data set has as its system HT-29, HT-115 and DLD-1. The data set can be described thus: Colon cancer cell growth by BrdU assay, three human colon carcinoma cell lines. The settings on record: 48 h. It counts as cell-based. The procedure:
For this purpose, three human colon carcinoma cell lines (i.e. HT-29, HT-115 and DLD-1) were used. These cell types were selected on the basis of the cyclooxigenase-2 (COX-2) expression. Indeed, HT-115 cells express a biologically active COX-2, HT-29 cells express a non-functional COX-2 isoform, and DLD-1 are COX-2-deficient cells.
as §1, §2, §3

Data set [4] is described as follows: Solubility in drug solutions / culture medium. The format is physicochemical. As to conditions: drug solutions for HT-29 experiments, 30 mM, pH 7.4.
Data set [5] concerns HT-29 STD cells. The data set can be described thus: Detection of apoptosis by TUNEL assay. The format is cell-based, human. The settings on record: 30 mM, 24 h. The procedure:
After 24 h of culture, HT-29 STD cells were treated during 24 h with the new molecules 13, 14, 17, 26 and 31, at a concentration of 30 mM. […] The pH of the drug solutions was adjusted to 7.4 with NaOH. Cells undergoing apoptosis were identified by enzymatic labelling of DNA strands using a terminal transferase dUTP nick end labelling assay (TUNEL assay, Roche Diagnostics™, Meylan, France). Counts of at least 500 cells/sample were systematically performed blindly in one experiment. The results were expressed as the mean±SEM of the number of stained cells.

Structures are written as SMILES. Entries after “also recorded” stand apart in the source; their conditions may differ.

For the molecule `Nc1cc2c(c(C(=O)O)c1)OCC2` [compound 17, 5-amino-2,3-dihydrobenzofuran-7-carboxylic acid], the “reporter gene activity, factor of increase relative to untreated cells” value at PPARγ [1] was “two-fold; also recorded: about twice”. Besides, in the data set on PPARγ [2], the “induction of PPARγ protein levels quantified by western blot” value turned out to be 2 fold. In the data set with HT-29 STD cells [3], the inhibition at 30000 µM lay in the range of 67 to 75%. Also, in the data set with DLD-1 cells, the inhibition at 500 µM is 0%, the inhibition at 1000 µM stood at 0%, the inhibition at 2500 µM was determined as 33.3% and the inhibition at 5000 µM amounted to 89.3%. Moreover, the inhibition at 10000 µM with DLD-1 cells amounted to 90.7%. Further, the “anti-proliferative effect on colon cancer cell growth (in words)” value in the data set on HT-29, HT-115 and DLD-1 (0.5-10 mM) is “marked anti-proliferative effect”. Also, the solubility entry in data set [4] is “poor solubility”.
In the case of `CC(C)Oc1ccc(N)cc1C(=O)O` [compound 31, 5-amino-2-isopropoxybenzoic acid], the “reporter gene activity, factor of increase relative to untreated cells” value on PPARγ [1] was “two-fold; also recorded: about twice”. The “induction of PPARγ protein levels quantified by western blot” value in the data set with PPARγ [2] was found to be 2 fold. For the same molecule, the inhibition at 30000 µM in the data set with HT-29 STD cells [3] fell in the range of 67 to 75%. Moreover, the “apoptosis, epithelial cells identified by TUNEL” value in the data set on HT-29 STD cells [5] was 80%. In the data set on DLD-1 cells, this molecule gave an inhibition at 500 µM of 0%, an inhibition at 1000 µM of 0%, an inhibition at 2500 µM of 0% and an inhibition at 5000 µM of 8.8%. The inhibition at 10000 µM in the data set on DLD-1 cells amounted to 31.7%. Moreover, the cell growth inhibition result in the data set on HT-29, HT-115 and DLD-1 (final concentration 10 mM) is listed as “significantly inhibited cell growth”.
